ChEMBL document CHEMBL1138507, “Synthesis, activity, and pharmacophore development for isatin-beta-thiosemicarbazones with selective activity toward multidrug-resistant cells” (J Med Chem, 2009)

What was measured:
cells [1] = details: Homo sapiens, KB-V1, 72 h
Description: Cytotoxicity against human P-glycoprotein-expressing KBV1 cells after 72 hrs by MTT assay

cells [2] = details: Homo sapiens, KB 3-1, 72 h
Description: Cytotoxicity against human P-gp-negative KB-3-1 cells after 72 hrs by MTT assay

[3] = molecular target: Serine/threonine-protein kinase PLK2 (Homo sapiens, UniProt Q9NYY3)
[4] = molecular target: Tyrosine-protein kinase ABL1 (Homo sapiens, UniProt P00519); test: Inhibition of ABL1
[5] = molecular target: Protein kinase C alpha type (Homo sapiens, UniProt P17252); test: Inhibition of PKCalpha
[6] = molecular target: Ribosomal protein S6 kinase alpha-1 (Homo sapiens, UniProt Q15418)
[7] = molecular target: T1, Receptor-type tyrosine-protein kinase FLT3 (Homo sapiens, UniProt P36888)
T1 sequence (P36888 whole entry): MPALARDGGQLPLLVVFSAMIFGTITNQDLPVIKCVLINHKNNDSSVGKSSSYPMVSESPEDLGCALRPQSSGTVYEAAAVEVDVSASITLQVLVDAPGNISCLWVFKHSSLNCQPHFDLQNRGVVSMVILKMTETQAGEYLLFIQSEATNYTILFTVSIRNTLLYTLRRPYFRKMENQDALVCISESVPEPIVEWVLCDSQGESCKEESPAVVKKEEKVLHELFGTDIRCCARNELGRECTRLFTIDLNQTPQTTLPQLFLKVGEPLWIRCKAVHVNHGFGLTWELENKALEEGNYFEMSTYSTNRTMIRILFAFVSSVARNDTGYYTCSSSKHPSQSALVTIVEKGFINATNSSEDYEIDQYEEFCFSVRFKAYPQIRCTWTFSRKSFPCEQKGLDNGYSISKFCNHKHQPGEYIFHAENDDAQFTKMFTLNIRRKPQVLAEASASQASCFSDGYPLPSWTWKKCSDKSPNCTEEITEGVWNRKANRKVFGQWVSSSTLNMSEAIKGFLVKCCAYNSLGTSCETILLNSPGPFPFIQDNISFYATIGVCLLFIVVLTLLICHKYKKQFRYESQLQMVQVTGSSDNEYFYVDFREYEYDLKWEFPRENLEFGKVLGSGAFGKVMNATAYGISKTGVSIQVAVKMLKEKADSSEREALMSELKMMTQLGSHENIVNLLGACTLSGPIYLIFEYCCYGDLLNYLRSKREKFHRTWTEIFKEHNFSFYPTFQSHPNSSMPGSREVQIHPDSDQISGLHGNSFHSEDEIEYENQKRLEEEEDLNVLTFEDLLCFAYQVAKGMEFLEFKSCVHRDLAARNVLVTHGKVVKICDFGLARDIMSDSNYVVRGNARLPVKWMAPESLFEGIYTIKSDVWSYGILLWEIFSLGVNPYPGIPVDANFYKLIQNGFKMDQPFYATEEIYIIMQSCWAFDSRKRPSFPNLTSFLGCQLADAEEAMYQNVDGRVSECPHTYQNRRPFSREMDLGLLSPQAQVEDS

[8] = molecular target: Cyclin-dependent kinase 2 (Homo sapiens, UniProt P24941); test: Inhibition of CDK2/cyclinA
[9] = molecular target: Serine/threonine-protein kinase pim-1 (Homo sapiens, UniProt P11309)
[10] = molecular target: Rho-associated protein kinase 1 (Homo sapiens, UniProt Q13464); test: Inhibition of ROCK1
[11] = molecular target: T2, Serine/threonine-protein kinase Chk1 (Homo sapiens, UniProt O14757)
T2 sequence (O14757 whole entry): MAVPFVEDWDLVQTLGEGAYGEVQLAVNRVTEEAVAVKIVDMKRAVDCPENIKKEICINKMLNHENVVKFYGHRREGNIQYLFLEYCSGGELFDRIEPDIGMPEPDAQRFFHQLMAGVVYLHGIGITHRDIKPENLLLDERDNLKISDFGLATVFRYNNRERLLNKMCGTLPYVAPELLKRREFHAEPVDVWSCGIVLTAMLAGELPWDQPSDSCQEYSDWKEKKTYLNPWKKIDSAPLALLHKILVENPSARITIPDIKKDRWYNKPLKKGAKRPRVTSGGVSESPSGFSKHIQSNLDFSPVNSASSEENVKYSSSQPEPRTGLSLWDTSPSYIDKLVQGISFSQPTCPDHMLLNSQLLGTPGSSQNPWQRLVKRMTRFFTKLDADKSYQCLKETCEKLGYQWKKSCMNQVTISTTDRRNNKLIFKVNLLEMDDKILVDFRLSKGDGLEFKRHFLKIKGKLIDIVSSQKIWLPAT

Sequence of Tyrosine-protein kinase ABL1 (P00519 whole entry): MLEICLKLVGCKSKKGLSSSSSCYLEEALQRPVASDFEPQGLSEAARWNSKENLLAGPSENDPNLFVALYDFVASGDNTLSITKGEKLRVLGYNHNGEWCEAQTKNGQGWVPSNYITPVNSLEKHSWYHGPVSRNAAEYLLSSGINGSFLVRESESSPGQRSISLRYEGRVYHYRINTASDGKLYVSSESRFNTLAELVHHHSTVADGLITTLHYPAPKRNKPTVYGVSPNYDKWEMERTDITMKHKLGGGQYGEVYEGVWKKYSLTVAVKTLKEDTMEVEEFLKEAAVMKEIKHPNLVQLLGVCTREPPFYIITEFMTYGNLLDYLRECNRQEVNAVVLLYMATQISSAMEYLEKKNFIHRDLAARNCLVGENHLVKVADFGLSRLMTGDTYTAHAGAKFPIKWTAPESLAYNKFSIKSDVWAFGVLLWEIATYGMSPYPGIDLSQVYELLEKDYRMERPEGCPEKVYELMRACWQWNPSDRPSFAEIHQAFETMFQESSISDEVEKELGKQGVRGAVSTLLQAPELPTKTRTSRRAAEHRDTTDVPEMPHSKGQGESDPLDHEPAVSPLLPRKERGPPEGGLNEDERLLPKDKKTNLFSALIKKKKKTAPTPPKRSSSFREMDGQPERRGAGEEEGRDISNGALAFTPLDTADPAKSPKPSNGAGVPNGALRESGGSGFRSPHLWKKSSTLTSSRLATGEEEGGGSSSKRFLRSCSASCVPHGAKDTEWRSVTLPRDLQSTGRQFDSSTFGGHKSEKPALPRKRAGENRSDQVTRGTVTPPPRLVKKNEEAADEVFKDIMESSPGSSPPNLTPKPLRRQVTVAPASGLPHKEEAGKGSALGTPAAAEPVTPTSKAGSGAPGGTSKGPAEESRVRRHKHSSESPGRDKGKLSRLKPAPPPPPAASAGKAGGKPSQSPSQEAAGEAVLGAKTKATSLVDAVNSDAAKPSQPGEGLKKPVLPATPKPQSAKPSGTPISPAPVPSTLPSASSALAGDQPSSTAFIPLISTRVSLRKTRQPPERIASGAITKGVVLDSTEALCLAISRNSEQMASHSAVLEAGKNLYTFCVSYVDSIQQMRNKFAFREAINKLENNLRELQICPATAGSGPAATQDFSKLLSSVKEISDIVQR
Sequence of Serine/threonine-protein kinase pim-1 (P11309 whole entry): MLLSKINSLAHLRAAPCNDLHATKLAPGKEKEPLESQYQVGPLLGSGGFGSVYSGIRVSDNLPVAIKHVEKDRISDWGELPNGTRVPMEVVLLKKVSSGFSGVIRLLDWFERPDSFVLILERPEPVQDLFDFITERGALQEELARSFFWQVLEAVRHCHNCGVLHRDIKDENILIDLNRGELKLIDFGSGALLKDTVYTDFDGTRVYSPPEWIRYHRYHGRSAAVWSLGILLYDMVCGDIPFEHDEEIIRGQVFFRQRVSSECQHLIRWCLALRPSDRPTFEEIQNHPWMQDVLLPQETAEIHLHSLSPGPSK
Sequence of Serine/threonine-protein kinase PLK2 (Q9NYY3 whole entry): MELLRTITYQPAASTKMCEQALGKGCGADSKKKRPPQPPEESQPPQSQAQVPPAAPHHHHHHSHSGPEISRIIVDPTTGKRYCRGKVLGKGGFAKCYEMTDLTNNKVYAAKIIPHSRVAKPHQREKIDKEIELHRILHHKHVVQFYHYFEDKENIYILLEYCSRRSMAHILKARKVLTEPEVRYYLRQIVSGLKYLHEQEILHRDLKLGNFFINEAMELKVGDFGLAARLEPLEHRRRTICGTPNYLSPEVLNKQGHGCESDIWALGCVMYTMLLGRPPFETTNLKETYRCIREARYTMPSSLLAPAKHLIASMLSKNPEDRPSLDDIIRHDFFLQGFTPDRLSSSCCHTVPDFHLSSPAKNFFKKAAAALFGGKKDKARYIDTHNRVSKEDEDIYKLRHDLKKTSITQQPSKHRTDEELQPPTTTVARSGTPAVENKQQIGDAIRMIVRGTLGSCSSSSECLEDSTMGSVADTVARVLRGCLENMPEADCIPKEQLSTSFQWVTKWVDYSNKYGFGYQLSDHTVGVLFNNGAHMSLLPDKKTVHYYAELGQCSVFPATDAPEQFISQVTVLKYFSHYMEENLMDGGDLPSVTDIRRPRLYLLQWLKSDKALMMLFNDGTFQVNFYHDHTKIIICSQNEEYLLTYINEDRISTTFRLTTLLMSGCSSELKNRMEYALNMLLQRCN
Sequence of Rho-associated protein kinase 1 (Q13464 whole entry): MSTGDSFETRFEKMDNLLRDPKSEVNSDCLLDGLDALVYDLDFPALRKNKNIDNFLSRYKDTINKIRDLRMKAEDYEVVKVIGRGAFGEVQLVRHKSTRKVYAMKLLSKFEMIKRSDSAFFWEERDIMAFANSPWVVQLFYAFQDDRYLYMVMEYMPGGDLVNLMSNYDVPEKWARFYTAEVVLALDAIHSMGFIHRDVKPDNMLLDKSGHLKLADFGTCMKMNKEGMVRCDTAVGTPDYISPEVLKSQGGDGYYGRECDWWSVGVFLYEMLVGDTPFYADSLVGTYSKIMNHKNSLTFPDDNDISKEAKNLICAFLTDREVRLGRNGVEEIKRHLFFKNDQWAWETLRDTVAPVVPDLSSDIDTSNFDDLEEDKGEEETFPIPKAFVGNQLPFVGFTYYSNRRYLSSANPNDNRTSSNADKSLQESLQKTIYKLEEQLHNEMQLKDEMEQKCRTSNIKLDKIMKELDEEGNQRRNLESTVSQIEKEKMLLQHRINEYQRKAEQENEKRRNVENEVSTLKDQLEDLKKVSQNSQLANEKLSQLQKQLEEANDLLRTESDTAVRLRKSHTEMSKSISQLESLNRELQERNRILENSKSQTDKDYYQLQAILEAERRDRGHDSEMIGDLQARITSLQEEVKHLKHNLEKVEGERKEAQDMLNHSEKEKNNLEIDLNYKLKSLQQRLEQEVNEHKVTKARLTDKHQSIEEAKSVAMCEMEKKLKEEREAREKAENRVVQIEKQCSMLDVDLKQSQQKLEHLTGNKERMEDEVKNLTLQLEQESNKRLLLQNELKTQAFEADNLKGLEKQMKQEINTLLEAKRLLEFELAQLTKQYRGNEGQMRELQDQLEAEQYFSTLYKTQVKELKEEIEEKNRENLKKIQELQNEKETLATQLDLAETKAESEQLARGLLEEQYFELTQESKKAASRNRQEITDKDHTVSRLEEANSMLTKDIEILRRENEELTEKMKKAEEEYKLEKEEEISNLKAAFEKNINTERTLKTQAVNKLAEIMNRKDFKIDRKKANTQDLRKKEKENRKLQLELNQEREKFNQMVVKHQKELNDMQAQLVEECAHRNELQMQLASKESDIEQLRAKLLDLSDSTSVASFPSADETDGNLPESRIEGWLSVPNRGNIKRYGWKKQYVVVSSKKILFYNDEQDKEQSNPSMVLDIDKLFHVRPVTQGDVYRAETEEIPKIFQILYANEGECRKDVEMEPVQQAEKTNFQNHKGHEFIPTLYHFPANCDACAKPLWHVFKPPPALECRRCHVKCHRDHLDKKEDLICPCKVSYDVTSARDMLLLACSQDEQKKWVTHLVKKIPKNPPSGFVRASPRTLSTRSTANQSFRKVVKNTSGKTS
Sequence of Ribosomal protein S6 kinase alpha-1 (Q15418 whole entry): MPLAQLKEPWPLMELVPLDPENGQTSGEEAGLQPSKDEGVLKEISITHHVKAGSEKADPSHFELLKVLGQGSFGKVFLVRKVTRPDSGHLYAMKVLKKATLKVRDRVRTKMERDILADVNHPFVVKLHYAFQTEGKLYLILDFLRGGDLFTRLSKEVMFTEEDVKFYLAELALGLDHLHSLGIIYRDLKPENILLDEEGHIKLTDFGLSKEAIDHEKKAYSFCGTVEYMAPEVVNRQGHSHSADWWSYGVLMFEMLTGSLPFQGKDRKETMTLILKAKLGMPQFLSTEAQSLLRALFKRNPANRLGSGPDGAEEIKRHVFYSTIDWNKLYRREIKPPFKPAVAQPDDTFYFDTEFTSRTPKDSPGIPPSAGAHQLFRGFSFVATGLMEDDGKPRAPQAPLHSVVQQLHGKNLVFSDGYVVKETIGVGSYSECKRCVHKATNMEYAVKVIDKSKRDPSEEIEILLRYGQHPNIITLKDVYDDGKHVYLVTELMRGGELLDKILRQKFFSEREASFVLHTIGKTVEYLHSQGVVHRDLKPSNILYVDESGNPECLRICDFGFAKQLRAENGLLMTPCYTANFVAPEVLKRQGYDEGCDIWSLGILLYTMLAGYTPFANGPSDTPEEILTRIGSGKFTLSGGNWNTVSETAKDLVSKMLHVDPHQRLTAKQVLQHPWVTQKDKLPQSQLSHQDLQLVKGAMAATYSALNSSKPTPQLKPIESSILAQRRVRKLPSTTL

| SMILES | IC50 (cells [1]) | IC50 (cells [2]) | IC50 (cells [1]; read-out: pIC50 (converted)) | IC50 (cells [2]; read-out: pIC50 (converted)) | other results |
| --- | --- | --- | --- | --- | --- |
| NC(=S)/N=N/c1c(O)[nH]c2ccccc12 | > 50 µM | > 50 µM | – | – | – |
| C=CCNC(=S)N/N=C1\C(=O)Nc2ccc([N+](=O)[O-])cc21 | 34.3 µM | 17 µM | 35.5 µM | 28.2 µM | – |
| COc1ccc(NC(=S)NN)cc1 | > 50 µM | > 50 µM | – | – | – |
| COc1ccc(NC(=S)N/N=C2\C(=O)Nc3c2ccc2ccccc32)cc1 | 30.3 µM | 4.4 µM | – | 4.37 µM | – |
| COc1ccc(NC(=O)N/N=C2\C(=O)Nc3ccccc32)cc1 | > 50 µM | 27.7 µM | – | – | – |
| COc1ccc(NC(=S)NN=C2Cc3ccccc3C2)cc1 | > 50 µM | > 50 µM | – | – | – |
| COc1ccc(NC(=S)N/N=C2\CCc3ccccc32)cc1 | > 50 µM | > 50 µM | – | – | – |
| CCOC(=O)C(=CNC(=S)N/N=C1\C(=O)Nc2ccccc21)C(=O)OCC | > 50 µM | > 50 µM | – | – | – |
| COc1ccc(NC(=S)NNC2=c3ccccc3=NC2=O)cc1 | 3.3 µM | 14.2 µM | 3.31 µM | 14.1 µM | IC50 [3]: > 50 µM; IC50 [4]: > 50 µM; IC50 [5]: > 50 µM; IC50 [6]: 34.9 µM; IC50 [7]: > 50 µM; IC50 [8]: > 50 µM; IC50 [9]: > 50 µM; IC50 [10]: > 50 µM; IC50 [11]: > 50 µM |
| COc1ccc(NC(=S)N/N=C2\C(=O)Nc3ccc(S(=O)(=O)O)cc32)cc1 | > 50 µM | > 50 µM | – | – | – |
| COc1ccc(NC(=S)N/N=C/c2ccc(NC(C)=O)cc2)cc1 | > 50 µM | > 50 µM | – | – | – |
| C=CCNC(=S)N/N=C1\C(=O)Nc2ccccc21 | 20.7 µM | 26.1 µM | 20.9 µM | 26.3 µM | – |
| NC(=O)N/N=C1\C(=O)Nc2ccccc21 | > 50 µM | > 50 µM | – | – | – |
| CC(=O)Nc1ccc(/C=N/NC(N)=S)cc1 [AMITHIOZONE] | > 50 µM | > 50 µM | – | – | – |
| O=C1Nc2ccccc2C1=O [ISATIN] | > 50 µM | > 50 µM | – | – | – |

More lines, main results first:

| IC50 (cells [1]) | IC50 (cells [2]) | IC50 (cells [1]; read-out: pIC50 (converted)) | IC50 (cells [2]; read-out: pIC50 (converted)) | SMILES | other results |
| --- | --- | --- | --- | --- | --- |
| 10.2 µM | 14.5 µM | 10.2 µM | 14.5 µM | O=C1Nc2ccc([N+](=O)[O-])cc2/C1=N/NC(=S)Nc1ccccc1 | – |
| 2.1 µM | 1.9 µM | 2.09 µM | 1.91 µM | Cc1cnc(/C=N/NC(N)=S)c2cccc(N)c12 | – |
| 2.4 µM | 3.4 µM | 2.4 µM | 3.39 µM | COc1ccc(NC(=S)N/N=C/c2ccccn2)cc1 | – |
| 5.2 µM | 39.3 µM | 5.25 µM | 38.9 µM | COc1ccc(NC(=S)N/N=C2\C(=O)Nc3ccc(F)cc32)cc1 | – |
| 9.3 µM | 19.6 µM | 9.33 µM | 19.5 µM | COc1ccc(NC(=S)N/N=C2\C(=O)N(C)c3ccccc32)cc1 | – |
| 6.7 µM | 26.3 µM | 6.76 µM | 26.3 µM | COc1ccc(NC(=S)N/N=C2\C(=O)Nc3ccc([N+](=O)[O-])cc32)cc1 | – |
| 4 µM | 28.4 µM | 3.98 µM | 28.2 µM | O=C1Nc2ccc(Br)cc2/C1=N/NC(=S)Nc1ccc([N+](=O)[O-])cc1 | – |
| 5.8 µM | 13.1 µM | 5.75 µM | 13.2 µM | O=C1Nc2ccc(Br)cc2/C1=N/NC(=S)Nc1ccc(F)cc1 | – |
| 5.9 µM | 1.4 µM | 5.89 µM | 1.41 µM | NC(=S)N/N=C/c1ncccc1N [TRIAPINE] | – |
